According to paper PMC7587356, “High-Throughput Screening for Inhibitors of the SARS-CoV-2 Protease Using a FRET-Biosensor” (Molecules, 2020):
Counter-ions that a name gives are not always drawn. Like-named read-outs stand apart in the source and are kept apart here.

Target: SARS-CoV-2 3CLpro (Severe acute respiratory syndrome coronavirus 2, UniProt P0DTD1)
Assay: biochemical
Format: biochemical
Set-up: Replicate_1 / Replicate_2 / mean / mean (LOPAC_screen_w_protease): unit not given here
Settings: for inhibition at 5 µM: 4 h
[1] = sheet LOPAC_screen_w_protease, primary screen with protease, 5 µM, mean of two replicates
[2] = sheet LOPAC_screen_w_protease, primary screen with protease, 5 µM, replicate 1
[3] = sheet LOPAC_screen_w_protease, primary screen with protease, 5 µM, replicate 2
[4] = sheet LOPAC_screen_w_protease, primary screen at 5 µM, mean of two replicates
[5] = sheet LOPAC_screen_w_protease, primary screen at 5 µM, replicate 1
[6] = sheet LOPAC_screen_w_protease, primary screen at 5 µM, replicate 2
[7] = sheet LOPAC_screen_w_protease, primary screen with protease, compound at 5 µM, mean of two replicates
[8] = sheet LOPAC_screen_w_protease, primary screen with protease, compound at 5 µM, replicate 1
[9] = sheet LOPAC_screen_w_protease, primary screen with protease, compound at 5 µM, replicate 2
[10] = LOPAC1280 primary screen with protease, 5 µM compound, mean of two replicates
[11] = LOPAC1280 primary screen with protease, 5 µM compound, replicate 1
[12] = LOPAC1280 primary screen with protease, 5 µM compound, replicate 2
[13] = sheet LOPAC_screen_w_protease, primary screen with protease, mean of two replicates
[14] = sheet LOPAC_screen_w_protease, primary screen with protease, replicate 1
[15] = sheet LOPAC_screen_w_protease, primary screen with protease, replicate 2
[16] = sheet LOPAC_screen_w_protease, LOPAC1280 primary screen at 5 µM, with protease, mean of the two replicates
[17] = sheet LOPAC_screen_w_protease, LOPAC1280 primary screen at 5 µM, with protease, replicate 1
[18] = sheet LOPAC_screen_w_protease, LOPAC1280 primary screen at 5 µM, with protease, replicate 2
[19] = LOPAC1280 primary screen with protease, 5 µM compound, mean of the two replicates

N[C@@H](Cc1c[nH]c2ccc(O)cc12)C(=O)O [5-Hydroxy-L-tryptophan]
inhibition at 5 µM (sheet LOPAC_screen_w_protease, primary screen at 5 µM, mean of two replicates, read-out: mean (LOPAC screen with protease)): 14.5% | inhibition at 5 µM (sheet LOPAC_screen_w_protease, primary screen at 5 µM, replicate 1, read-out: Replicate_1 (LOPAC screen with protease)): 16.3% | inhibition at 5 µM (sheet LOPAC_screen_w_protease, primary screen at 5 µM, replicate 2, read-out: Replicate_2 (LOPAC screen with protease)): 12.8%

O=C(O)Cc1c[nH]c2ccc(O)cc12 [5-Hydroxyindolacetic acid]
mean [1]: -0.3702 | Replicate_1 [2]: 1.641 | Replicate_2 [3]: -2.381

Nc1ncn([C@@H]2O[C@H](CO)[C@@H](O)[C@H]2O)c(=O)n1 [5-azacytidine]
mean (LOPAC screen with protease) [4]: 9.256 | Replicate_1 (LOPAC screen with protease) [5]: 17.5612 | Replicate_2 (LOPAC screen with protease) [6]: 0.9518

C[C@H]1O[C@@H](n2cc(F)c(=O)[nH]c2=O)[C@H](O)[C@@H]1O [5-fluoro-5'-deoxyuridine]
mean [7]: 2.678 | Replicate_1 [8]: 3.684 | Replicate_2 [9]: 1.673

CCCCCC(O)CCCC(=O)O.[Na] (stereo not drawn) [5-hydroxydecanoic acid sodium]
mean [1]: 0.3617 | Replicate_1 [2]: 2.03 | Replicate_2 [3]: -1.306

C[C@]12CC[C@@H](O)C[C@@H]1CC[C@@H]1[C@@H]2CC[C@]2(C)[C@@H](O)CC[C@@H]12 [5alpha-Androstane-3alpha,17beta-diol]
mean (LOPAC_screen_w_protease) [10]: 1.678 | Replicate_1 (LOPAC_screen_w_protease) [11]: 0.2579 | Replicate_2 (LOPAC_screen_w_protease) [12]: 3.098

CC(=O)[C@H]1CC[C@H]2[C@@H]3CC[C@H]4C[C@H](O)CC[C@]4(C)[C@H]3C(=O)C[C@]12C [5alpha-Pregnan-3alpha-ol-11,20-dione]
mean [13]: 2.341 | Replicate_1 [14]: 0.8983 | Replicate_2 [15]: 3.784

CC(=O)[C@H]1CC[C@H]2[C@@H]3CC[C@H]4C[C@H](O)CC[C@]4(C)[C@H]3CC[C@]12C [5alpha-Pregnan-3alpha-ol-20-one]
mean [16]: 0.7105 | Replicate_1 [17]: 1.221 | Replicate_2 [18]: 0.1995

O=c1[nH]c2ccccc2c2ccccc12 [6(5H)-Phenanthridinone]
mean [13]: 2.579 | Replicate_1 [14]: 3.064 | Replicate_2 [15]: 2.0946

Br.NC1CCc2cc(O)c(O)cc2C1 (stereo not drawn) [6,7-ADTN hydrobromide]
mean (LOPAC screen with protease) [4]: 64.0916 | Replicate_1 (LOPAC screen with protease) [5]: 63.1732 | Replicate_2 (LOPAC screen with protease) [6]: 65.0099

O=c1[nH]c2cc(Cl)c(Cl)cc2[nH]c1=O [6,7-Dichloroquinoxaline-2,3-dione]
mean (sheet LOPAC_screen_w_protease, LOPAC1280 primary screen with protease, 5 µM compound, mean of the two replicates): 4.331 | Replicate_1 (sheet LOPAC_screen_w_protease, LOPAC1280 primary screen with protease, 5 µM compound, replicate 1): 5.455 | Replicate_2 (sheet LOPAC_screen_w_protease, LOPAC1280 primary screen with protease, 5 µM compound, replicate 2): 3.207

NCCCCCC(=O)O [6-Aminohexanoic acid]
inhibition at 5 µM (LOPAC1280 primary screen with protease, 5 µM compound, replicate 1, read-out: Replicate_1 (LOPAC_screen_w_protease)): 2.45% | inhibition at 5 µM (LOPAC1280 primary screen with protease, 5 µM compound, replicate 2, read-out: Replicate_2 (LOPAC_screen_w_protease)): 1.78% | mean (LOPAC_screen_w_protease) [19]: 2.116

COc1cc2c(CCNC(C)=O)c[nH]c2cc1Cl [6-Chloromelatonin]
mean (LOPAC_screen_w_protease) [10]: 1.65 | Replicate_1 (LOPAC_screen_w_protease) [11]: 0.5069 | Replicate_2 (LOPAC_screen_w_protease) [12]: 2.794

Cl.NCC(O)c1cc(O)c(O)cc1F (stereo not drawn) [6-Fluoronorepinephrine hydrochloride]
mean [7]: 2.749 | Replicate_1 [8]: 2.331 | Replicate_2 [9]: 3.1667

COc1cc2c(CCNC(C)=O)c[nH]c2cc1O [6-Hydroxymelatonin]
mean [13]: 2.302 | Replicate_1 [14]: 3.2941 | Replicate_2 [15]: 1.31

CCCCCCCCCCC/C=C\C(C)(C)/C=C\CCCC(=O)O [7,7-Dimethyl-(5Z,8Z)-eicosadienoic acid]
mean [13]: 2.303 | Replicate_1 [14]: 4.092 | Replicate_2 [15]: 0.5145

O=C(O)c1cc(O)c2ccc(Cl)cc2n1 [7-Chlorokynurenic acid]
inhibition at 5 µM (sheet LOPAC_screen_w_protease, primary screen of LOPAC1280 at 5 µM with protease, mean of the two replicates, read-out: mean): 3.48% | inhibition at 5 µM (sheet LOPAC_screen_w_protease, primary screen of LOPAC1280 at 5 µM with protease, replicate 1, read-out: Replicate_1): 3.97% | inhibition at 5 µM (sheet LOPAC_screen_w_protease, primary screen of LOPAC1280 at 5 µM with protease, replicate 2, read-out: Replicate_2): 2.98%

O=[N+]([O-])c1cccc2cn[nH]c12 [7-Nitroindazole]
inhibition at 5 µM (sheet LOPAC_screen_w_protease, primary screen with protease, compound at 5 µM, mean of two replicates, read-out: mean): 3.04% | inhibition at 5 µM (sheet LOPAC_screen_w_protease, primary screen with protease, compound at 5 µM, replicate 1, read-out: Replicate_1): 2.19% | inhibition at 5 µM (sheet LOPAC_screen_w_protease, primary screen with protease, compound at 5 µM, replicate 2, read-out: Replicate_2): 3.89%

Cn1c(=O)c2c(nc(C=Cc3cccc(Cl)c3)n2C)n(C)c1=O [8-(3-Chlorostyryl)caffeine]
mean [16]: 0.7326 | Replicate_1 [17]: 1.9699 | Replicate_2 [18]: -0.5047

Cn1c(=O)c2[nH]c(-c3ccc(S(=O)(=O)O)cc3)nc2n(C)c1=O [8-(p-Sulfophenyl)theophylline]
mean [7]: 3.141 | Replicate_1 [8]: 2.844 | Replicate_2 [9]: 3.439

Nc1nc2c(nc(Br)n2[C@@H]2O[C@@H]3COP(=O)([O-])O[C@H]3[C@H]2O)c(=O)[nH]1.[Na+] [8-Bromo-cGMP sodium]
mean [7]: 2.652 | Replicate_1 [8]: 4.1 | Replicate_2 [9]: 1.204

Cn1c(=O)c2[nH]c(C3CCCC3)nc2n(C)c1=O [8-Cyclopentyl-1,3-dimethylxanthine]
mean [1]: 0.2262 | Replicate_1 [2]: 2.489 | Replicate_2 [3]: -2.037

CCCn1c(=O)c2[nH]c(C3CCCC3)nc2n(CCC)c1=O [8-Cyclopentyl-1,3-dipropylxanthine]
mean (LOPAC_screen_w_protease) [10]: 1.568 | Replicate_1 (LOPAC_screen_w_protease) [11]: 3.936 | Replicate_2 (LOPAC_screen_w_protease) [12]: -0.7999

Nc1ncnc2c1ncn2C1CCCC1 [9-cyclopentyladenine]
mean [7]: 2.587 | Replicate_1 [8]: 2.53 | Replicate_2 [9]: 2.643

CC(N)=NCc1cccc(CN)c1.Cl.Cl [1400W dihydrochloride]
mean [16]: 0.5066 | Replicate_1 [17]: 0.5348 | Replicate_2 [18]: 0.4785

CC(C)C[C@H]1C(=O)N2CCC[C@H]2[C@]2(O)O[C@](NC(=O)[C@@H]3C=C4c5cccc6[nH]c(Br)c(c56)C[C@H]4N(C)C3)(C(C)C)C(=O)N12.CS(=O)(=O)O [(+)-Bromocriptine methanesulfonate]
mean (LOPAC_screen_w_protease) [19]: 1.984 | Replicate_1 (LOPAC_screen_w_protease) [11]: 2.405 | Replicate_2 (LOPAC_screen_w_protease) [12]: 1.562

CN(C)CC[C@@H](c1ccc(Br)cc1)c1ccccn1 [(+)-Brompheniramine maleate]
inhibition at 5 µM (sheet LOPAC_screen_w_protease, LOPAC1280 at 5 µM, mean of two replicates, read-out: mean): 1.03% | inhibition at 5 µM (sheet LOPAC_screen_w_protease, LOPAC1280 at 5 µM, replicate 1, read-out: Replicate_1): 0.743% | inhibition at 5 µM (sheet LOPAC_screen_w_protease, LOPAC1280 at 5 µM, replicate 2, read-out: Replicate_2): 1.32%

CN1CCCC1c1cccnc1.Cc1ccc(C(=O)OC(C(=O)O)C(OC(=O)c2ccc(C)cc2)C(=O)O)cc1 (stereo not drawn) [(+)-Nicotine (+)-di-p-toluoyl tartrate]
Replicate_1 (LOPAC_screen_w_protease): 1.288 | Replicate_2 (LOPAC_screen_w_protease): 2.109 | mean (LOPAC_screen_w_protease): 1.698

CC[C@@H]1C(=O)OC[C@@H]1Cc1cncn1C.Cl [(+)-Pilocarpine hydrochloride]
mean [16]: 0.6668 | Replicate_1 [17]: 2.011 | Replicate_2 [18]: -0.6778

N[C@@H](Cn1oc(=O)[nH]c1=O)C(=O)O [(+)-Quisqualic acid]
mean [16]: 0.4364 | Replicate_1 [17]: 1.4914 | Replicate_2 [18]: -0.6187

C[C@@H]1OC[C@H](C[N+](C)(C)C)O1.[I-] [(+)-cis-Dioxolane iodide]
mean (LOPAC screen with protease) [4]: 7.2322 | Replicate_1 (LOPAC screen with protease) [5]: 5.683 | Replicate_2 (LOPAC screen with protease) [6]: 8.781

C[N+]1(C)CCc2cc3c(cc2[C@H]1[C@@H]1OC(=O)c2c1ccc1c2OCO1)OCO3.[Br-] [(-)-Bicuculline methbromide, 1(S), 9(R)]
mean [13]: 2.342 | Replicate_1 [14]: 1.484 | Replicate_2 [15]: 3.2

CN1C(=O)CC[C@H]1c1cccnc1 [(-)-Cotinine]
mean [13]: 2.4459 | Replicate_1 [14]: 2.442 | Replicate_2 [15]: 2.45

CNC[C@H](O)c1ccc(O)c(O)c1 [(-)-Epinephrine bitartrate]
inhibition at 5 µM (read-out: Replicate_1): 5.37% | inhibition at 5 µM (read-out: Replicate_2): 0.847% | inhibition at 5 µM (read-out: mean): 3.11%

CN1CC[C@@]2(C)c3cc(O)ccc3N(C)[C@@H]12.O=C(O)/C=C/C(=O)O [(-)-Eseroline fumarate]
mean (LOPAC screen with protease) [4]: 88.3904 | Replicate_1 (LOPAC screen with protease) [5]: 89.8661 | Replicate_2 (LOPAC screen with protease) [6]: 86.9147

C[C@@]12N[C@@H](Cc3ccccc31)c1ccccc12.O=C(O)/C=C\C(=O)O [(-)-MK-801 hydrogen maleate]
mean (LOPAC screen with protease) [4]: 6.636 | Replicate_1 (LOPAC screen with protease) [5]: 5.967 | Replicate_2 (LOPAC screen with protease) [6]: 7.306
